Test results taken from patent EP0565593B1, “REDUCING PESTICIDAL INTERACTIONS IN CROPS” (priority 1990, dated 1992).
Where “and” joins values, the source holds several entries; their conditions need not be identical. Equal values may be shown once. Read-outs that look alike come from different tables or passages of the source.

How the values were obtained:
[1] = test system: Corn
[2] = test system: Giant foxtail (GIFT); experiment: whole plant or invertebrate; format: in vivo
[3] = test system: Velvetleaf (VELE); format: in vivo, Abutilon theophrasti
[4] = test system: Velvetleaf (VELE); experiment: whole plant or invertebrate; format: in vivo, Abutilon theophrasti
[5] = test system: Corn; remark: listed apart in the source
[6] = test system: Shattercane (SHCA); format: in vivo
[7] = test system: Corn; experiment: Greenhouse test Procedure VII: biocide and antidote in furrow, herbicide POE (Examples 39-42, 48-50, 56-58; Tables 38-41, 47-49, 55-57); format: in vivo; conditions: for % Inhibition Corn: C (COUNTER) + antidote in furrow
Text: This procedure describes interaction among herbicide, biocide and antidote when the biocide and the antidote is applied to a soil furrow containing crop seed before emergence of the crop and the herbicide is applied after emergence of the crop and weeds. The soil and planting depth was described in Procedure IV. The containers for comparison, the biocide and antidote applications to soil furrows were described in Procedure VI. In this procedure, the seed beds of the first, second, third and fourth containers are covered by soil layers not treated with herbicide. The containers were then placed on a bench in a greenhouse and subirrigated as required for the duration of the test. The herbicide, dispersed or dissolved in water containing 0.25% v/v nonionic surfactant (X-77) was applied by a track sprayer (187 L/ha) to the emerged plants of the second, third and fourth containers about five days after planting. All treatments were run in duplicate. Plant response was observed according to Procedure IV. Variations in this procedure will be noted in the examples.
In this example, tests were conducted according to Procedure VII for the POE application of the herbicides following in-furrow application of COUNTER® 15G insecticide (BIOCIDE No. 1) and the antidote on the pre-planted test seeds. In this test, the herbicides were Nos. 1 (MON-12000), 10 (ALLY®) and #4 (HARMONY®) and the Antidote Nos. 1, 7, 12 and 33.
These in-furrow treatments comprised a 50-50 mix of blended granules of COUNTER with and without 5G granular antidotes at 7.4 + 7.4 mg/cm or 1.1 + 0.37 mg active ingredient (a.i.)/cm. The in-furrow initiation of the test was followed five (5) days later with POE application of the herbicides; observations were made eight (8) days later.
In another test, conducted simultaneously with that in Example 39, Herbicide Nos. 5 (chlorimuron ethyl, active ingredient in CLASSIC® herbicide), 7 (nicosulfuron, active ingredient in ACCENT® herbicide) and 15 (tribenuron methyl, active ingredient in EXPRESS® herbicide) were substituted as test herbicides.
In this example, using the same procedure as above, the following imidazolinone herbicides were used with the same insecticide/biocide and antidotes as above: Herb. No. 16 (imazaquin, a.i. in SCEPTER® herbicide; No. 19 (Code No. AC 222293, a.i. in ASSERT® herbicide); No. 6 (imazethapyr, a.i. in PURSUIT® herbicide and No. 18 (imazapyr, a.i. in ARSENAL® herbicide). Test results are shown in Table 40. Table 40
This example describes the testing of the above antidotes used in Examples 39-41 to safen negative synergy interactions between representative species of the class of herbicidal compounds identified as azolopyrimidine sulfonamides and COUNTER 15G. The same procedure used in the above examples was conducted in this test. In this test, the herbicides were formulated in 17% acetone and 83% water with 0.25% v/v X-77 surfactant.
In these tests (according to Procedure VII) the safeners in solution with acetone were applied in furrow to the soil, followed by COUNTER 15G granules at 227 g/305 m (8 oz./1000'). Applications were made in alternate rows in two separate 13.7 cm x 27.7 cm pans containing Dupo silt loam. Pans were seeded 1.3 cm deep, placed on benches in a greenhouse and subirrigated. BEACON was formulated in water with 0.25% v/v X-77 surfactant and applied by track sprayer at a rate of 187 L/Ha (20 gal/A). Weed species in this test were giant foxtail, shattercane and velvetleaf. The herbicide was applied five (5) days after PPI initiation and observation of test result (shown in Table 47) made eight (8) days later.
In Table 47 COUNTER 15G is abbreviated as "C" and the antidotes as "A" in the column headings which indicate the "C + A" ratios used in the tests. Control and COUNTER treatments are average of four (4) replications and COUNTER + Antidote treatments, average of 2 reps. […]

[8] = Table 51, Biocide No. 8 alone 8.96 kg/Ha PPI, observed 13 days after treatment
[9] = Table 50, Biocide No. 8 alone 8.96 kg/Ha PPI, no herbicide, no antidote
[10] = Antidote 4.48 + Biocide No. 1 8.96 Kg/Ha PPI, Herb. No. 8 0.07, 5 DAP, before herbicide application
[11] = Antidote 4.48 + Biocide No. 1 8.96 Kg/Ha PPI, Herb. No. 8 0.07 POE, 13 DAP
[12] = Antidote 4.48 + Biocide No. 1 8.96 Kg/Ha PPI, Herbicide No. 7 0.28 POE, 13 days after planting
[13] = Herb. […], 5 DAP, before herbicide application
[14] = Table 14: Herbicide No. 7 (ACCENT) 0.84 Kg/Ha POE + Biocide No. 2 8.96 Kg/Ha PPI + antidote 4.48 Kg/Ha PPI, 13 days after planting, 8 days after herbicide
[15] = […], 13 days after planting, 8 days after herbicide
[16] = […], observed 10 days after herbicide application
[17] = Herb. […], 13 DAP, after herbicide application
[18] = Antidote 8.96 + Biocide No. 1 8.96 Kg/Ha PPI, Herb. No. 8 0.07, 5 DAP, before herbicide application
[19] = Antidote 8.96 + Biocide No. 1 8.96 Kg/Ha PPI, Herb. No. 8 0.07 POE, 13 DAP
[20] = Antidote 8.96 + Biocide No. 1 8.96 Kg/Ha PPI, Herbicide No. 7 0.28 POE, 13 days after planting
[21] = Table 14: Herbicide No. 7 (ACCENT) 0.84 Kg/Ha POE + Biocide No. 2 8.96 Kg/Ha PPI + antidote 8.96 Kg/Ha PPI, 13 days after planting, 8 days after herbicide

## CCCSP(=O)(OCC)SCCC [Biocide No. 8, O-Ethyl-S,S-dipropyl phosphorothioate, reference compound]
[1]; MOCAP applied alone, PPI, Example 52
  corn injury: significant corn injury
[1]; [8]
  % Inhibition Corn: 30%
[2]; [8]
  % Inhibition GIFT: 90%
[3]; [9]
  % Inhibition VELE: 15%
[4]; [8]
  % Inhibition VELE: 20%
[5]; MOCAP alone at 8.96 kg/ha, Example 51
  corn injury: corn stunting, leaf malformations and stand loss
[5]; [9]
  % Inhibition Corn: 30%
[6]; [9]
  % Inhibition SHCA: 85%

## CC1CN(C(=O)C(Cl)Cl)C(C)(C)O1 (centres unmarked) [compound 8]
[7]; C:A Ratio 20, ACCENT 0.56 Kg/Ha POE
  % Inhibition Corn: 10%
[7]; C:A Ratio 20, BEACON 0.28 Kg/Ha POE
  % Inhibition Corn: 0%
[7]; C:A Ratio 40, ACCENT 0.56 Kg/Ha POE
  % Inhibition Corn: 15%
[7]; C:A Ratio 40, BEACON 0.28 Kg/Ha POE
  % Inhibition Corn: 0%
[7]; C:A Ratio 80, ACCENT 0.56 Kg/Ha POE
  % Inhibition Corn: 20%
[7]; C:A Ratio 80, BEACON 0.28 Kg/Ha POE
  % Inhibition Corn: 5%
[7]; C:A Ratio 160, ACCENT 0.56 Kg/Ha POE
  % Inhibition Corn: 40%
[7]; C:A Ratio 160, BEACON 0.28 Kg/Ha POE
  % Inhibition Corn: 15%
[7]; Herbicide No. 8 0.28 Kg/Ha POE + COUNTER 15G 227 g/305 m + antidote in furrow, C:A ratio 5
  % Corn Inhibition C:A Ratios 5: 3%
[7]; Herbicide No. 8 0.28 Kg/Ha POE + COUNTER 15G 227 g/305 m + antidote in furrow, C:A ratio 10
  % Corn Inhibition C:A Ratios 10: 5%
[7]; Herbicide No. 8 0.28 Kg/Ha POE + COUNTER 15G 227 g/305 m + antidote in furrow, C:A ratio 20
  % Corn Inhibition C:A Ratios 20: 5%
[7]; Herbicide No. 8 0.28 Kg/Ha POE + COUNTER 15G 227 g/305 m + antidote in furrow, C:A ratio 40
  % Corn Inhibition C:A Ratios 40: 3%
[7]; Herbicide No. 8 0.28 Kg/Ha POE + COUNTER 15G 227 g/305 m + antidote in furrow, C:A ratio 80
  % Corn Inhibition C:A Ratios 80: 5%
[7]; Herbicide No. 8 0.28 Kg/Ha POE + COUNTER 15G 227 g/305 m + antidote in furrow, C:A ratio 160
  % Corn Inhibition C:A Ratios 160: 10%
[2]; in vivo
  % Inhibition GIFT: 45% and 50% and 85% and 65% and 70% and 90% and 60%
[3]; [10]
  % Inhibition 5 DAP VELE: 10%
[3]; [11]
  % Inhibition 13 DAP VELE: 85%
[3]; [12]
  % Inhibition VELE: 65%
[3]; [13]
  % Inhibition 5 DAP VELE: 0%
[3]; [14]
  % Inhibition VELE: 70%
[3]; [15]
  % Inhibition VELE: 70%
[3]; [16]
  % Inhibition VELE: 75%
[3]; in vivo
  % Inhibition 5 DAP VELE: 0%
  % Inhibition 13 DAP VELE: 90%
[5]; [10]
  % Inhibition 5 DAP Corn: 20%
[5]; [11]
  % Inhibition 13 DAP Corn: 35%
[5]; [12]
  % Inhibition Corn: 35%
[5]; [13]
  % Inhibition 5 DAP Corn: 0%
[5]; [14]
  % Inhibition Corn: 20%
[5]; [15]
  % Inhibition Corn: 20%
[5]; [16]
  % Inhibition Corn: 45%
[5]; in vivo
  % Inhibition 5 DAP Corn: 20%
  % Inhibition 13 DAP Corn: 30%
  % Inhibition Corn: 30% and 55%
[6]; [10]
  % Inhibition 5 DAP SHCA: 0%
[6]; [11]
  % Inhibition 13 DAP SHCA: 90%
[6]; [12]
  % Inhibition SHCA: 60%
[6]; [14]
  % Inhibition SHCA: 85%
[6]; [15]
  % Inhibition SHCA: 90%
[6]; [16]
  % Inhibition SHCA: 60%
[6]; in vivo
  % Inhibition 5 DAP SHCA: 30%
  % Inhibition 13 DAP SHCA: 80%

## CCOC(=O)c1cnoc1-c1ccc(Cl)cc1Cl [compound 30]
[2]; in vivo
  % Inhibition GIFT: 65% and 80% and 90% and 75% and 95%
[3]; [10]
  % Inhibition 5 DAP VELE: 75%
[3]; [11]
  % Inhibition 13 DAP VELE: 95%
[3]; [12]
  % Inhibition VELE: 95%
[3]; [13]
  % Inhibition 5 DAP VELE: 90%
[3]; [17]
  % Inhibition 13 DAP VELE: 95%
[3]; [14]
  % Inhibition VELE: 100%
[3]; [15]
  % Inhibition VELE: 100%
[3]; [16]
  % Inhibition VELE: 95%
[3]; in vivo
  % Inhibition 5 DAP VELE: 80%
  % Inhibition 13 DAP VELE: 95%
[4]; in vivo
  % Inhibition VELE: 90% and 95% and 100%
[5]; [10]
  % Inhibition 5 DAP Corn: 10%
[5]; [11]
  % Inhibition 13 DAP Corn: 50%
[5]; [12]
  % Inhibition Corn: 55%
[5]; [13]
  % Inhibition 5 DAP Corn: 0%
[5]; [14]
  % Inhibition Corn: 30%
[5]; [15]
  % Inhibition Corn: 25%
[5]; [16]
  % Inhibition Corn: 70%
[5]; in vivo
  % Inhibition 5 DAP Corn: 10%
  % Inhibition 13 DAP Corn: 56%
  % Inhibition Corn: 50% and 35% and 40%
  effect on corn before application of the herbicide: Some injury
[6]; [10]
  % Inhibition 5 DAP SHCA: 50%
[6]; [11]
  % Inhibition 13 DAP SHCA: 75%
[6]; [12]
  % Inhibition SHCA: 85%
[6]; [17]
  % Inhibition 13 DAP SHCA: 95%
[6]; [14]
  % Inhibition SHCA: 90%
[6]; [15]
  % Inhibition SHCA: 90%
[6]; [16]
  % Inhibition SHCA: 70%
[6]; in vivo
  % Inhibition 5 DAP SHCA: 25%
  % Inhibition 13 DAP SHCA: 95%
  % Inhibition SHCA: 90% and 60% and 70%

## COc1ccc(OC)c(C(=O)CC2OC(=O)c3ccccc32)c1 (centres unmarked) [compound 77]
[1]; MON-12000 + OP insecticides, Examples 20-23
  safening activity: low or nil
[2]; in vivo
  % Inhibition GIFT: 60% and 95% and 85% and 80% and 70%
[3]; [18]
  % Inhibition 5 DAP VELE: 0%
[3]; [19]
  % Inhibition 13 DAP VELE: 90%
[3]; [20]
  % Inhibition VELE: 65%
[3]; [13]
  % Inhibition 5 DAP VELE: 0%
[3]; [21]
  % Inhibition VELE: 70%
[3]; [15]
  % Inhibition VELE: 70%
[3]; [16]
  % Inhibition VELE: 80%
[3]; in vivo
  % Inhibition 5 DAP VELE: 20%
  % Inhibition 13 DAP VELE: 95%
[5]; [18]
  % Inhibition 5 DAP Corn: 0%
[5]; [19]
  % Inhibition 13 DAP Corn: 75%
[5]; [20]
  % Inhibition Corn: 25%
[5]; [13]
  % Inhibition 5 DAP Corn: 0%
[5]; [21]
  % Inhibition Corn: 25%
[5]; [15]
  % Inhibition Corn: 15%
[5]; [16]
  % Inhibition Corn: 20%
[5]; in vivo
  % Inhibition 5 DAP Corn: 15%
  % Inhibition 13 DAP Corn: 65%
[5]; primisulfuron POE + biocides PPI, Tables 8-10
  activity in reducing corn injury: either inactive or weakly active
[6]; [18]
  % Inhibition 5 DAP SHCA: 10%
[6]; [19]
  % Inhibition 13 DAP SHCA: 85%
[6]; [20]
  % Inhibition SHCA: 70%
[6]; [21]
  % Inhibition SHCA: 85%
[6]; [15]
  % Inhibition SHCA: 95%
[6]; [16]
  % Inhibition SHCA: 60%
[6]; in vivo
  % Inhibition 5 DAP SHCA: 60%
  % Inhibition 13 DAP SHCA: 90%
  % Inhibition SHCA: 85% and 55% and 65% and 45%
